Where two headings read alike, the source gives them in different places.
Assays:
[1] = system: NFF, neonatal foreskin fibroblasts; experiment: Cell survival assay (clonogenic survival, SRB), normal cells; format: cell-based, human; details: SRB
Procedure: (§1) The cytotoxicities of the compounds of the invention were determined by clonogenic survival of human cancer cells (MM96L, melanoma) and human normal cells (NFF, neonatal foreskin fibroblasts). Cells were incubated with the compounds at various concentrations of compound (0.01-10 μg/mL) for 24 hours, washed, and then grown for a further four days in the absence of hydroxamic acid before determining cell survival by cell count. The final readout involved staining with sulforhodamine B (SRB), a cost-effective method amenable to automation and high throughput analysis. At the technical level, “cell sensitivity” is often inferred from short term (1-2 day) observations such as apoptosis, which may not be a satisfactory model of clonogenic survival.
(§2) Cell Lines and Culture Medium. All cell lines used in this study have been described previously (Parsons et al., 1986; Todaro et al., 1980; Glenn et al., 2004). All cell lines were cultured in 10% heat-inactivated foetal calf serum (CSL, Australia) in RPMI 1640 medium supplemented with 100 U/mL penicillin, 100 μg/mL streptomycin, and 3 mM HEPES at 5% CO2, 99% humidity at 37° C. Primary human fibroblasts were obtained from neonatal foreskins and cultured in the above medium. Routine mycoplasma tests were performed using Hoechst stain^i and were always negative.
(§3) Cell Survival Assay. Cells were plated into 96-well microtitre plates at 5×10^3 cells/well, and allowed to adhere overnight. Test compounds were added to culture medium at the indicated concentrations, and plates incubated in the above conditions for 24 hours. Following this incubation period, compounds and media were removed, and replaced with fresh culture medium. Cells were then grown for a further 72 hours before assay using sulforhodamine B (SRB; Sigma, St. Louis, Mo.) as previously described. Briefly, the culture medium was removed from the 96-well microtitre plates and the plates washed twice with phosphate buffered saline (PBS), before the cells were fixed with methylated spirits for 15 minutes. The plates were then rinsed with tap water and the fixed cells stained with 50 μL/well of SRB solution (0.4% sulforhodamine B (w/v) in 1% (v/v) acetic acid) over a period of 1 hour. The SRB solution was then removed from the wells and the plates rapidly washed two times with 1% (v/v) acetic acid. Protein bound dye was then solubilised with the addition of 100 μL of 10 mM unbuffered Tris, and incubated for 15 min at 25° C. Plates were then read at 564 nm on a VERSA max tunable microplate reader (Molecular Devices, Sunnyvale, Calif.).

MM96L melanoma cells = experiment: Cell survival assay (clonogenic survival, SRB); format: cell-based, human; details: for SI (Selectivity Index = IC50 (NFF)/IC50 (MM96L)): NFF vs MM96L
Procedure: as §1, §2, §3

[2] = Table 6, IC50 (NFF)/IC50 (MM96L)
[3] = NFF normal fibroblasts, 24 h with compound, further 72 h growth, read-out: IC50 (uM) NFF
[4] = MM96L melanoma, 24 h with compound, further 72 h growth, SRB, read-out: IC50 (uM) MM96L
[5] = Homo sapiens, Fibroblast, 24 h, Table 6, 24 hours with compound, further growth, read-out: IC50 (μM) NFF
[6] = Homo sapiens, MM96L, 24 h, Table 6, 24 hours with compound, further growth, SRB, read-out: IC50 (μM) MM96L
[7] = Table 5, 24 hours with compound, further growth, read-out: IC50 NFF
[8] = Table 5, 24 hours with compound, further growth, SRB, read-out: IC50 MM96L
[9] = Table 5, Selectivity Index = IC50 (NFF)/IC50 (MM96L)
[10] = Homo sapiens, Fibroblast, NFF normal fibroblasts, 24 h with compound, further 72 h growth, read-out: IC50 (uM) NFF
[11] = Homo sapiens, MM96L, MM96L melanoma, 24 h with compound, further 72 h growth, SRB, read-out: IC50 (uM) MM96L
[12] = Table 8, 24 hours with compound, further growth, read-out: IC50 (μM) NFF
[13] = Table 8, 24 hours with compound, further growth, SRB, read-out: IC50 (μM) MM96
[14] = Table 8, IC50 (NFF)/IC50 (MM96L)
[15] = Homo sapiens, MM96L, most preferred compounds, exemplary examples, read-out: potency of IC50 against the MM96 melanoma cells

CN(C)c1ccc(C(=O)N[C@@H](CSCCCC(=O)NO)C(=O)NCCc2ccccc2Br)cc1 [Example 84]
IC50 ([1]; Table 6, 24 hours with compound, further growth, read-out: IC50 (μM) NFF): 3.3 ± 0.3 µM | IC50 (MM96L melanoma cells; Table 6, 24 hours with compound, further growth, SRB, read-out: IC50 (μM) MM96L): 0.7 ± 0.2 µM | Selectivity (MM96L melanoma cells; [2]): 4.7

O=C(CCCCC[C@H](NC(=O)c1cc2ccccc2[nH]1)C(=O)NCc1ccccc1)NO [Example 131]
IC50 [1, 3]: 0.572 µM | IC50 (MM96L melanoma cells; [4]): 0.08 µM | SI (Selectivity Index = IC50 (NFF)/IC50 (MM96L)) (MM96L melanoma cells): 7.1

CC(=O)c1cccc(NC(=O)[C@H](CSCCCC(=O)NO)NC(=O)c2ccc(N(C)C)cc2)c1 [Example 60]
IC50 [1, 5]: 1.6 ± 0.08 µM | IC50 (MM96L melanoma cells; [6]): 0.55 ± 0.05 µM | Selectivity (MM96L melanoma cells; [2]): 2.9

CN(C)c1ccc(C(=O)N[C@@H](CSCCCC(=O)NO)C(=O)NCc2ccncc2)cc1 [Example 80]
IC50 [1, 5]: 14 ± 1 µM | IC50 (MM96L melanoma cells; [6]): 2.2 ± 0.3 µM | Selectivity (MM96L melanoma cells; [2]): 6.2

O=C(CCCSC[C@H](NC(=O)c1ccco1)C(=O)NCc1ccccc1)NO [Example 34]
IC50 [1, 7]: 22 ± 1 µM | IC50 (MM96L melanoma cells; [8]): 7.2 ± 0.2 µM | Selectivity (MM96L melanoma cells; [9]): 3.1

CN(C)c1ccc(C(=O)N[C@@H](CSCCCC(=O)NO)C(=O)NCc2cccc3ccccc23)cc1 [Example 75]
IC50 [1, 5]: 0.42 ± 0.05 µM | IC50 (MM96L melanoma cells; [6]): 0.2 ± 0.02 µM | Selectivity (MM96L melanoma cells; [2]): 2.1

O=C(CCCCC[C@H](NC(=O)c1ccc(Br)cc1)C(=O)NCc1ccccn1)NO [Example 157]
IC50 [1, 10]: 2.09 µM | IC50 (MM96L melanoma cells; [11]): 1.15 µM | SI (Selectivity Index = IC50 (NFF)/IC50 (MM96L)) (MM96L melanoma cells): 1.8

O=C(/C=C/c1ccccc1)N[C@@H](CCCCCC(=O)NO)C(=O)NCc1ccccc1 [Example 153]
IC50 [1, 3]: 0.99 µM | IC50 (MM96L melanoma cells; [4]): 0.731 µM | SI (Selectivity Index = IC50 (NFF)/IC50 (MM96L)) (MM96L melanoma cells): 1.4

CN(C)c1ccc(C(=O)N[C@@H](CSCCCC(=O)NO)C(=O)NCc2ccc(C(=O)Nc3ccncc3)cc2)cc1 [Example 107]
IC50 [1, 12]: 16.9 µM | IC50 (MM96L melanoma cells; [13]): 2.96 µM | Selectivity (MM96L melanoma cells; [14]): 5.7

CN(C)c1ccc(C(=O)N[C@@H](CSCCCC(=O)NO)C(=O)NCc2ccc(C(=O)Nc3ccc(-c4ccccc4)cc3)cc2)cc1 [Example 111]
IC50 [1, 12]: 1.11 µM | IC50 (MM96L melanoma cells; [13]): 0.51 µM | Selectivity (MM96L melanoma cells; [14]): 2.2

CN(C)c1ccc(C(=O)N[C@@H](CCCCCC(=O)NO)C(=O)NCc2ccccc2)cc1 [Example 123]
IC50 [1, 3]: 1 ± 0.1 µM | IC50 (MM96L melanoma cells; [15]): ≤ 0.5 µM | IC50 (MM96L melanoma cells; [4]): 0.16 ± 0.08 µM | SI (Selectivity Index = IC50 (NFF)/IC50 (MM96L)) (MM96L melanoma cells): 6.0

COc1ccc(CCC(=O)N[C@@H](CSCCCC(=O)NO)C(=O)NCc2ccccc2)cc1 [Example 47]
IC50 [1, 7]: 16 ± 1 µM | IC50 (MM96L melanoma cells; [8]): 8 ± 1 µM | Selectivity (MM96L melanoma cells; [9]): 2.0

O=C(CCCSC[C@H](NC(=O)CCCc1ccccc1)C(=O)NCc1ccccc1)NO [Example 49]
IC50 [1, 7]: 11 ± 2 µM | IC50 (MM96L melanoma cells; [8]): 5 ± 1 µM | Selectivity (MM96L melanoma cells; [9]): 2.2

O=C(CCCSC[C@H](NC(=O)c1cccnc1)C(=O)NCc1ccccc1)NO [Example 36]
IC50 [1, 7]: > 100 µM | IC50 (MM96L melanoma cells; [8]): 12.8 ± 0.8 µM | Selectivity (MM96L melanoma cells; [9]): >8

CN(C)c1ccc(C(=O)N[C@@H](CSCCCC(=O)NO)C(=O)NCc2ccc(C(=O)Nc3ccccc3)cc2)cc1 [Example 121]
IC50 [1, 12]: 11.6 µM | IC50 (MM96L melanoma cells; [13]): 1.41 µM | Selectivity (MM96L melanoma cells; [14]): 8.2

O=C(CCCCC[C@H](NC(=O)c1ccc(C(F)(F)F)cc1)C(=O)Nc1cccc2cccnc12)NO [Example 147]
IC50 [1, 10]: 0.696 µM | IC50 (MM96L melanoma cells; [11]): 0.258 µM | SI (Selectivity Index = IC50 (NFF)/IC50 (MM96L)) (MM96L melanoma cells): 2.7

CN(C)c1ccc(C(=O)N[C@@H](CSCCCC(=O)NO)C(=O)NCc2ccc(C(=O)Nc3ccccc3Cc3ccccc3)cc2)cc1 [Example 120]
IC50 [1, 12]: 2.32 µM | IC50 (MM96L melanoma cells; [13]): 1.02 µM | Selectivity (MM96L melanoma cells; [14]): 2.4

O=C(CCCCC[C@H](NC(=O)c1cc2ccccc2[nH]1)C(=O)NCc1ccccc1)NO [Example 130]
IC50 [1, 3]: 1.26 µM | IC50 (MM96L melanoma cells; [15]): ≤ 0.5 µM | IC50 (MM96L melanoma cells; [4]): 0.252 µM | SI (Selectivity Index = IC50 (NFF)/IC50 (MM96L)) (MM96L melanoma cells): 5.0
